According to patent US11957759B1, “Rapidly accelerated fibrosarcoma (RAF) degrading compounds and associated methods of use” (Arvinas Operations, Inc., priority 2022, dated 2024):

Tests used:
B-RAF V600E = biological target: T1, B-RAF V600E (Homo sapiens, UniProt P15056, V600E); experiment: Target protein degradation, assay A: T-Rex 293 cells, HA-B-RAF_V600E, 96 well format; type: cell-based; conditions: T-Rex 293 HA-B-RAF_V600E cells, 24 hours, Examples 1-82
T1 construct: expressed in transfected cells; host or cells: T-Rex 293 cells (Invitrogen #R71007)
T1 sequence (P15056 whole entry V600E): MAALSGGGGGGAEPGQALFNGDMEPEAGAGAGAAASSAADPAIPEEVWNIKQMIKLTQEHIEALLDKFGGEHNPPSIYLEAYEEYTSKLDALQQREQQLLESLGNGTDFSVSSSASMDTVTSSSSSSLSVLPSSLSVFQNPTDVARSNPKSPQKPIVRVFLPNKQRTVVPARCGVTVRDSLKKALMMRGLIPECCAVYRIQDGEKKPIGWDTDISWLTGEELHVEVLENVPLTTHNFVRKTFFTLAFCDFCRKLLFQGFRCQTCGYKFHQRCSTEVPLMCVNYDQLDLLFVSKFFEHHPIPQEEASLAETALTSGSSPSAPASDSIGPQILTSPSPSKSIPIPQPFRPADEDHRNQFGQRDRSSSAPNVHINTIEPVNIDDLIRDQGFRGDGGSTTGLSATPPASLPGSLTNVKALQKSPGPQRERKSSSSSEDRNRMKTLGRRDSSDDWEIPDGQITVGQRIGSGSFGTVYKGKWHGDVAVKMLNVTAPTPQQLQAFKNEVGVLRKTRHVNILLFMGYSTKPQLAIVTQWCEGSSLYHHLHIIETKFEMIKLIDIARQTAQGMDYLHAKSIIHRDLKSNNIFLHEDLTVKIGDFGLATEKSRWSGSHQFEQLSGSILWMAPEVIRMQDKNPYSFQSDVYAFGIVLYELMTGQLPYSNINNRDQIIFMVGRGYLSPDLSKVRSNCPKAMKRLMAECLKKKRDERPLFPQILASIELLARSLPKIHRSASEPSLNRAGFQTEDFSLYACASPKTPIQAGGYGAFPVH
Summary of the method: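 T-Rex 293 cells stably expressing doxycycline-inducible HA-B-RAF V600E (1 ng/mL doxycycline) treated 24 h at 37 °C with compound, final 1 μM to 0.1 nM in 0.1% DMSO. Fixed, permeabilized cells immunostained for HA and imaged by high-content microscopy; DC50 and Dmax (% of control) reported.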

B-RAF G466V = biological target: T2, B-RAF G466V (Homo sapiens, UniProt P15056, G466V); experiment: Target protein degradation, assay B: T-Rex 293 cells, HA-B-RAF_G466V, 96 well format; type: cell-based; conditions: T-Rex 293 HA-B-RAF_G466V cells, 24 hours, Examples 1-82
T2 construct: expressed in transfected cells; host or cells: T-Rex 293 cells (Invitrogen #R71007)
T2 sequence (P15056 whole entry G466V): as the sequence (P15056 whole entry V600E) above, with G466V, E600V counted along it
Summary of the method: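 T-Rex 293 cells stably carrying doxycycline-inducible HA-B-RAF G466V (0.75 ng/mL doxycycline) treated 24 h at 37 °C with compound, 30 nM to 3 pM final, 0.1% DMSO. Fixed, permeabilised, anti-HA immunofluorescence quantified by high-content imaging; DC50 and Dmax (% of control) derived.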

**Q.** How did the DC50 (B-RAF V600E) turn out when `N#Cc1c(NS(=O)(=O)N2CC[C@@H](F)C2)ccc(F)c1Oc1ccc2ncn(-c3ccc(N4CCN(c5ccc(C(=O)NC6CCC(=O)NC6=O)c(F)c5)CC4)cc3)c(=O)c2c1` (stereo partly drawn) [Example 72, 4-[4-(4-{6-[2-cyano-6-fluoro-3-({[(3R)-3-fluoropyrrolidin-1-yl]sulfonyl}amino)phenoxy]-4-oxo-3,4-dihydroquinazolin-3-yl}phenyl)piperazin-1-yl]-N-(2,6-dioxopiperidin-3-yl)-2-fluorobenzamide] was run?
**A.** > 500 nM

**Q.** What about the DC50 (B-RAF G466V) of the same compound?
**A.** > 30 nM

**Q.** Which DC50 (B-RAF V600E) does the source give for `N#Cc1c(NS(=O)(=O)N2CC[C@@H](F)C2)ccc(F)c1Oc1ccc2ncn(C3CCN(CC4CCN(c5ccc6c(c5)CN(C5CCC(=O)NC5=O)C6=O)CC4)CC3)c(=O)c2c1` (stereo partly drawn) [Example 6, (3R)-N-[2-cyano-3-({3-[1-({1-[2-(2,6-dioxopiperidin-3-yl)-1-oxo-2,3-dihydro-1H-isoindol-5-yl]piperidin-4-yl}methyl)piperidin-4-yl]-4-oxo-3,4-dihydroquinazolin-6-yl}oxy)-4-fluorophenyl]-3-fluoropyrrolidine-1-sulfonamide] here?
**A.** > 500 nM

**Q.** And the DC50 (B-RAF G466V)?
**A.** ≤ 1 nM

**Q.** And the Dmax (B-RAF G466V)?
**A.** ≤ 35%

**Q.** Which DC50 (B-RAF V600E) does the source give for `N#Cc1c(NS(=O)(=O)N2CC[C@@H](F)C2)ccc(F)c1Oc1ccc2ncn(-c3cnc(N4CCN(C(=O)CC5(O)CCN(c6ccc7c(c6)CN([C@H]6CCC(=O)NC6=O)C7=O)CC5)CC4)nc3)c(=O)c2c1` [Example 68, (3R)-N-(2-cyano-3-{[3-(2-{4-[2-(1-{2-[(3S)-2,6-dioxopiperidin-3-yl]-1-oxo-2,3-dihydro-1H-isoindol-5-yl}-4-hydroxypiperidin-4-yl)acetyl]piperazin-1-yl}pyrimidin-5-yl)-4-oxo-3,4-dihydroquinazolin-6-yl]oxy}-4-fluorophenyl)-3-fluoropyrrolidine-1-sulfonamide] here?
**A.** 50 to 500 nM

**Q.** And the Dmax (B-RAF V600E)?
**A.** 35 to 70%

**Q.** What about the DC50 (B-RAF G466V) of the same compound?
**A.** 1 to 10 nM

**Q.** What about the Dmax (B-RAF G466V) of the same compound?
**A.** 35 to 70%

**Q.** `N#Cc1c(NS(=O)(=O)N2CC[C@@H](F)C2)ccc(F)c1Oc1ccc2ncn(-c3ccc(N4CCN(CC5CCN(c6ccc([C@H]7CCC(=O)NC7=O)cc6F)CC5)CC4)cc3)c(=O)c2c1` (single isomer, unassigned) [Example 80, (3R)—N-(2-cyano-3-{[3-(4-{4-[(1-{4-[(3R*)-2,6-dioxopiperidin-3-yl]-2-fluorophenyl}piperidin-4-yl)methyl]piperazin-1-yl}phenyl)-4-oxo-3,4-dihydroquinazolin-6-yl]oxy}-4-fluorophenyl)-3-fluoropyrrolidine-1-sulfonamide] was tested. Which DC50 (B-RAF V600E) did it give?
**A.** 50 to 500 nM

**Q.** And the Dmax (B-RAF V600E)?
**A.** 35 to 70%

**Q.** And the DC50 (B-RAF G466V)?
**A.** 1 to 10 nM

**Q.** And the Dmax (B-RAF G466V)?
**A.** 35 to 70%

**Q.** With `N#Cc1c(NS(=O)(=O)N2CC[C@@H](F)C2)ccc(F)c1Oc1ccc2ncn(-c3ccc(N4CCC(OC5CCN(c6ccc7c(c6)CN(C6CCC(=O)NC6=O)C7=O)CC5)CC4)cc3)c(=O)c2c1` (stereo partly drawn) [Example 82, (3R)—N-{2-cyano-3-[(3-{4-[4-({1-[2-(2,6-dioxopiperidin-3-yl)-1-oxo-2,3-dihydro-1H-isoindol-5-yl]piperidin-4-yl}oxy)piperidin-1-yl]phenyl}-4-oxo-3,4-dihydroquinazolin-6-yl)oxy]-4-fluorophenyl}-3-fluoropyrrolidine-1-sulfonamide] as the compound, how does the DC50 (B-RAF V600E) read?
**A.** 50 to 500 nM

**Q.** And the Dmax (B-RAF V600E)?
**A.** 35 to 70%

**Q.** And the DC50 (B-RAF G466V)?
**A.** 1 to 10 nM

**Q.** And the Dmax (B-RAF G466V)?
**A.** ≤ 35%

**Q.** With `N#Cc1c(NS(=O)(=O)N2CC[C@@H](F)C2)ccc(F)c1Oc1ccc2ncn(-c3ccc(N4CCN(CC5CCN(c6ccc7c(c6F)CN([C@H]6CCC(=O)NC6=O)C7=O)CC5)CC4)cc3)c(=O)c2c1` [Example 73, (3R)—N-(2-cyano-3-{[3-(4-{4-[(1-{2-[(3S)-2,6-dioxopiperidin-3-yl]-4-fluoro-1-oxo-2,3-dihydro-1H-isoindol-5-yl}piperidin-4-yl)methyl]piperazin-1-yl}phenyl)-4-oxo-3,4-dihydroquinazolin-6-yl]oxy}-4-fluorophenyl)-3-fluoropyrrolidine-1-sulfonamide] as the compound, how does the DC50 (B-RAF V600E) read?
**A.** 5 to 50 nM

**Q.** What about the Dmax (B-RAF V600E) of the same compound?
**A.** 35 to 70%

**Q.** And the DC50 (B-RAF G466V)?
**A.** 1 to 10 nM

**Q.** What about the Dmax (B-RAF G466V) of the same compound?
**A.** 35 to 70%

**Q.** How did the DC50 (B-RAF V600E) turn out when `N#Cc1c(NS(=O)(=O)N2CC[C@@H](F)C2)ccc(F)c1Oc1ccc2ncn(-c3ccc(N4CCN(CC5CCN(c6ccc(NC7CCC(=O)NC7=O)cc6F)CC5)CC4)nc3)c(=O)c2c1` (stereo partly drawn) [Example 12, (3R)-N-(2-cyano-3-{[3-(6-{4-[(1-{4-[(2,6-dioxopiperidin-3-yl)amino]-2-fluorophenyl}piperidin-4-yl)methyl]piperazin-1-yl}pyridin-3-yl)-4-oxo-3,4-dihydroquinazolin-6-yl]oxy}-4-fluorophenyl)-3-fluoropyrrolidine-1-sulfonamide] was run?
**A.** 5 to 50 nM

**Q.** And the Dmax (B-RAF V600E)?
**A.** 35 to 70%

**Q.** And the DC50 (B-RAF G466V)?
**A.** > 30 nM

**Q.** With `N#Cc1c(NS(=O)(=O)N2CC[C@@H](F)C2)ccc(F)c1Oc1ccc2ncn(-c3ccc(N4CCN(c5ccc6c(c5)CN(C5CCC(=O)NC5=O)C6=O)CC4)cc3)c(=O)c2c1` (stereo partly drawn) [Example 5, (3R)—N-[2-cyano-3-[3-[4-[4-[2-(2,6-dioxo-3-piperidyl)-1-oxo-isoindolin-5-yl]piperazin-1-yl]phenyl]-4-oxo-quinazolin-6-yl]oxy-4-fluoro-phenyl]-3-fluoro-pyrrolidine-1-sulfonamide] as the compound, how does the DC50 (B-RAF V600E) read?
**A.** > 500 nM

**Q.** What about the DC50 (B-RAF G466V) of the same compound?
**A.** > 30 nM

**Q.** Which DC50 (B-RAF V600E) does the source give for `N#Cc1c(NS(=O)(=O)N2CC[C@@H](F)C2)ccc(F)c1Oc1ccc2ncn(-c3ccc(N4CCN(C(=O)CC5(O)CCN(c6ccc(C7CCC(=O)NC7=O)cc6F)CC5)CC4)nc3)c(=O)c2c1` (stereo partly drawn) [Example 69, (3R)-N-{2-cyano-3-[(3-{6-[4-(2-{1-[4-(2,6-dioxopiperidin-3-yl)-2-fluorophenyl]-4-hydroxypiperidin-4-yl}acetyl)piperazin-1-yl]pyridin-3-yl}-4-oxo-3,4-dihydroquinazolin-6-yl)oxy]-4-fluorophenyl}-3-fluoropyrrolidine-1-sulfonamide] here?
**A.** 50 to 500 nM

**Q.** And the Dmax (B-RAF V600E)?
**A.** 35 to 70%

**Q.** And the DC50 (B-RAF G466V)?
**A.** 1 to 10 nM

**Q.** What about the Dmax (B-RAF G466V) of the same compound?
**A.** 35 to 70%

**Q.** For `N#Cc1c(NS(=O)(=O)N2CC[C@@H](F)C2)ccc(F)c1Oc1ccc2ncn(-c3ccc(N4CCN(CC5CCN(c6cccc7c6ccn7C6CCC(=O)NC6=O)CC5)CC4)cc3)c(=O)c2c1` (stereo partly drawn) [Example 74, (3R)—N-{2-cyano-3-[(3-{4-[4-({1-[1-(2,6-dioxopiperidin-3-yl)-1H-indol-4-yl]piperidin-4-yl}methyl)piperazin-1-yl]phenyl}-4-oxo-3,4-dihydroquinazolin-6-yl)oxy]-4-fluorophenyl}-3-fluoropyrrolidine-1-sulfonamide], which DC50 (B-RAF V600E) is on record?
**A.** 50 to 500 nM

**Q.** What about the Dmax (B-RAF V600E) of the same compound?
**A.** 35 to 70%

**Q.** What about the DC50 (B-RAF G466V) of the same compound?
**A.** 1 to 10 nM

**Q.** And the Dmax (B-RAF G466V)?
**A.** ≤ 35%
